Experiments:
Type in all cases: in vivo
[1] = system: Yellow Fever Mosquito (Aedes aegypti, AEDSAE); assay: Bioassay on Yellow Fever Mosquito (YFM), 96-well plate larval assay; conditions: Species YFM (Yellow Fever Mosquito)
In short: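 Each well was scored for mortality after 3 days at room temperature under a non-evaporative lid. Test molecules came from DMSO masters (4000 ppm stock) diluted with water/acetone 90:10 and dispensed into six replicate plates, which were then infested with roughly 1-day-old larvae in liver-powder water.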

[2] = system: Cabbage Looper (Trichoplusia ni, TRIPNI); assay: Bioassay on Cabbage Looper (CL), 128-well diet tray assay; conditions: Trichoplusia ni; Species CL (Cabbage Looper); read-out: CL (Biological Results, rating)
In short: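 Percent mortality, averaged across eight replicate wells, was scored after five to seven days at 25° C. under a 14:10 light-dark cycle. Each well held one to five second instar larvae on artificial diet treated at 50 μg/cm^2 with compound from 90:10 acetone-water, allowed to dry before infestation.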

[3] = system: Beet Armyworm (Spodoptera exigua, LAPHEG); assay: Bioassay on Beet Armyworm (BAW), 128-well diet tray assay; conditions: Species BAW (Beet Armyworm), read-out: BAW (Biological Results, rating)
In short: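 In a 128-well format, eight wells per compound received a surface dose of 50 μg/cm^2 on artificial diet. After drying, each well got one to five second instar larvae, held at 25° C. with 14:10 photoperiod. Mortality percentages after five to seven days were averaged.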

Row | Structure (SMILES) | YFM (Biological Results, rating) [1] | pest or weed control at 50 µg/cm2 [2] [%] | pest or weed control at 50 µg/cm2 [3] [%]
1 | Cc1cc(N)ccc1NC(=O)c1cc(NC(=O)[C@H]2[C@H](c3ccc(Br)c(Cl)c3)C2(Cl)Cl)ccc1Cl (relative stereo) [F324, N-(4-Amino-2-methylphenyl)-5-(trans-3-(4-bromo-3-chlorophenyl)-2,2-dichlorocyclopropane-1-carboxamido)-2-chlorobenzamide] | A (80-100) | 50 to 100 | 50 to 100
2 | Nc1c(F)ccc(NC(=O)c2cc(NC(=O)[C@H]3[C@H](c4ccc(Br)c(Cl)c4)C3(Cl)Cl)ccc2Cl)c1F (relative stereo) [F325, N-(3-Amino-2,4-difluorophenyl)-5-(trans-3-(4-bromo-3-chlorophenyl)-2,2-dichlorocyclopropane-1-carboxamido)-2-chlorobenzamide] | A (80-100) | 50 to 100 | 50 to 100
3 | Nc1cccc(NC(=O)c2cc(NC(=O)[C@H]3[C@H](c4cc(Cl)cc(Cl)c4)C3(Cl)Cl)ccc2Cl)n1 (relative stereo) [F326, trans-N-(6-aminopyridin-2-yl)-2-chloro-5-(2,2-dichloro-3-(3,5-dichlorophenyl)cyclopropane-1-carboxamido)benzamide] | A (80-100) | 50 to 100 | 50 to 100
4 | Nc1cccc(NC(=O)c2cc(NC(=O)[C@H]3[C@H](c4ccc(F)c(Cl)c4)C3(Cl)Cl)ccc2Cl)n1 (relative stereo) [F327, N-(6-Aminopyridin-2-yl)-2-chloro-5-(trans-2,2-dichloro-3-(3-chloro-4-fluorophenyl)cyclopropane-1-carboxamido)benzamide] | A (80-100) | 50 to 100 | 50 to 100
5 | C=Cc1ccc([C@H]2[C@H](C(=O)Nc3ccc(Cl)c(C(=O)N(C)c4ccc(F)cc4)c3)C2(Cl)Cl)cc1Cl (relative stereo) [F329, 2-Chloro-5-(trans-2,2-dichloro-3-(3-chloro-4-vinylphenyl)cyclopropane-1-carboxamido)-N-(4-fluorophenyl)-N-methylbenzamide] | A (80-100) | 50 to 100 | 50 to 100
6 | O=C(Nc1ccc(F)cc1)c1cc(NC(=O)[C@H]2[C@H](c3ccc(Cl)c(Br)c3)C2(Cl)Cl)ccc1Cl (relative stereo) [F330, 5-(trans-3-(3-Bromo-4-chlorophenyl)-2,2-dichlorocyclopropane-1-carboxamido)-2-chloro-N-(4-fluorophenyl)benzamide] | A (80-100) | 50 to 100 | 50 to 100
7 | O=C(Nc1ccc(F)cc1F)c1cc(NC(=O)[C@H]2[C@H](c3ccc(Cl)c(Br)c3)C2(Cl)Cl)ccc1Cl (relative stereo) [F331, 5-(trans-3-(3-Bromo-4-chlorophenyl)-2,2-dichlorocyclopropane-1-carboxamido)-2-chloro-N-(2,4-difluorophenyl)benzamide] | A (80-100) | 50 to 100 | 50 to 100
8 | N#Cc1cc(F)ccc1NC(=O)c1cc(NC(=O)[C@H]2[C@H](c3ccc(Cl)c(Br)c3)C2(Cl)Cl)ccc1Cl (relative stereo) [F332, 5-(trans-3-(3-Bromo-4-chlorophenyl)-2,2-dichlorocyclopropane-1-carboxamido)-2-chloro-N-(2-cyano-4-fluorophenyl)benzamide] | A (80-100) | 50 to 100 | 50 to 100
9 | N#Cc1cc(F)ccc1NC(=O)c1cc(NC(=O)[C@H]2[C@H](c3cc(Cl)cc(Br)c3)C2(Cl)Cl)ccc1Cl (relative stereo) [F333, 5-(trans-3-(3-Bromo-5-chlorophenyl)-2,2-dichlorocyclopropane-1-carboxamido)-2-chloro-N-(2-cyano-4-fluorophenyl)benzamide] | A (80-100) | 50 to 100 | 50 to 100
10 | Cc1cc(NC(=O)OC(C)(C)C)ccc1NC(=O)c1cc(NC(=O)[C@H]2[C@H](c3ccc(Cl)c(Br)c3)C2(Cl)Cl)ccc1Cl (relative stereo) [F334, tert-Butyl (4-(5-(trans-3-(3-bromo-4-chlorophenyl)-2,2-dichlorocyclopropane-1-carboxamido)-2-chlorobenzamido)-3-methylphenyl)carbamate] | A (80-100) | 50 to 100 | 50 to 100
11 | Cc1cc(N)ccc1NC(=O)c1cc(NC(=O)[C@H]2[C@H](c3cc(Cl)cc(Br)c3)C2(Cl)Cl)ccc1Cl (relative stereo) [F337, N-(4-Amino-2-methylphenyl)-5-(trans-3-(3-bromo-5-chlorophenyl)-2,2-dichlorocyclopropane-1-carboxamido)-2-chlorobenzamide] | A (80-100) | 50 to 100 | 50 to 100
12 | Nc1c(F)ccc(NC(=O)c2cc(NC(=O)[C@H]3[C@H](c4cc(Cl)cc(Br)c4)C3(Cl)Cl)ccc2Cl)c1F (relative stereo) [F339, N-(3-Amino-2,4-difluorophenyl)-5-(trans-3-(3-bromo-5-chlorophenyl)-2,2-dichlorocyclopropane-1-carboxamido)-2-chlorobenzamide] | A (80-100) | 50 to 100 | 50 to 100
13 | N#Cc1cc(F)ccc1NC(=O)c1cc(NC(=O)[C@H]2[C@H](c3cccc(C(F)(F)F)c3)C2(Cl)Cl)ccc1Cl (relative stereo) [F340, trans-2-Chloro-N-(2-cyano-4-fluorophenyl)-5-(2,2-dichloro-3-(3-(trifluoromethyl)phenyl)cyclopropane-1-carboxamido)benzamide] | A (80-100) | 50 to 100 | 50 to 100
14 | Nc1c(F)ccc(NC(=O)c2cc(NC(=O)[C@H]3[C@H](c4cccc(C(F)(F)F)c4)C3(Cl)Cl)ccc2Cl)c1F (relative stereo) [F341, trans-N-(3-Amino-2,4-difluorophenyl)-2-chloro-5-(2,2-dichloro-3-(3-(trifluoromethyl)phenyl)cyclopropane-1-carboxamido)benzamide] | A (80-100) | 50 to 100 | 50 to 100
15 | N#Cc1cc(Cl)cc([C@H]2[C@H](C(=O)Nc3ccc(Cl)c(C(=O)Nc4ncc(F)cc4F)c3)C2(Cl)Cl)c1 (relative stereo) [F342, trans-2-Chloro-5-(2,2-dichloro-3-(3-chloro-5-cyanophenyl)cyclopropane-1-carboxamido)-N-(3,5-difluoropyridin-2-yl)benzamide] | A (80-100) | 50 to 100 | 50 to 100
16 | N#Cc1cc(Cl)cc([C@H]2[C@H](C(=O)Nc3ccc(Cl)c(C(=O)Nc4ccc(F)cc4C#N)c3)C2(Cl)Cl)c1 (relative stereo) [F343, trans-2-Chloro-N-(2-cyano-4-fluorophenyl)-5-(2,2-dichloro-3-(3-chloro-5-cyanophenyl)cyclopropane-1-carboxamido)benzamide] | A (80-100) | 50 to 100 | 50 to 100
17 | N#Cc1cc(Cl)cc([C@H]2[C@H](C(=O)Nc3ccc(Cl)c(C(=O)Nc4ccc(F)c(N)c4F)c3)C2(Cl)Cl)c1 (relative stereo) [F344, trans-N-(3-Amino-2,4-difluorophenyl)-2-chloro-5-(2,2-dichloro-3-(3-chloro-5-cyanophenyl)cyclopropane-1-carboxamido)benzamide] | A (80-100) | 50 to 100 | 50 to 100
18 | Nc1c(F)cnc(NC(=O)c2cc(NC(=O)[C@H]3[C@H](c4cc(Cl)cc(Cl)c4)C3(Cl)Cl)ccc2Cl)c1F (relative stereo) [F345, trans-N-(4-Amino-3,5-difluoropyridin-2-yl)-2-chloro-5-(2,2-dichloro-3-(3,5-dichlorophenyl)cyclopropane-1-carboxamido)benzamide] | A (80-100) | 50 to 100 | 50 to 100
19 | O=C(Nc1ccc(F)cc1F)c1cc(NC(=O)[C@H]2[C@H](c3ccc(F)c(F)c3)C2(Cl)Cl)ccc1Cl (relative stereo) [F346, 2-Chloro-5-(trans)-(2,2-dichloro-3-(3,4-difluorophenyl)cyclopropane-1-carboxamido)-N-(2,4-difluorophenyl)benzamide] | A (80-100) | 50 to 100 | 50 to 100
20 | O=C(Nc1ccc(F)cc1F)c1cc(NC(=O)[C@H]2[C@H](c3ccc(C(F)(F)F)c(F)c3)C2(Cl)Cl)ccc1Cl (relative stereo) [F347, 2-Chloro-5-(trans)-(2,2-dichloro-3-(3-fluoro-4-(trifluoromethyl)phenyl)cyclopropane-1-carboxamido)-N-(2,4-difluorophenyl)benzamide] | A (80-100) | 50 to 100 | 50 to 100
